The values below come from patent publication US7615353B1, “Tivozanib response prediction” (AVEO Pharmaceuticals, Inc., priority 2009, dated 2009).

Experiment [1] relates to murine breast tumors (BH archive). As to the kind of experiment: tumor response to tivozanib, subcutaneously transplanted murine Her2-driven breast tumors (BH archive) in NCr nude mice. Format: in vivo, mouse. The source says:
A population of more than 100 murine breast tumors (BH archive) was used to identify tumors that are sensitive to tivozanib (responders) and tumors that are resistant to tivozanib (non-responders). The BH archive was established by in vivo propagation and cryopreservation of primary tumor material from more than 100 spontaneous murine breast tumors derived from engineered chimeric mice that develop Her2-dependent, inducible spontaneous breast tumors. The mice were produced essentially as follows.
Tumor cells were isolated by physical disruption of the tumors using cell strainers. Typically 1×10^5 cells were mixed with matrigel (50:50 volume) and injected subcutaneously into female NCr nu/nu mice on upper dorsal region between the shoulder blades. When these tumors grew to approximately 500 mm^3, which typically required 2 to 4 weeks, they were collected for further propagation, drug response testing, and analysis. Analysis included microarray profiling, general histopathology, and IHC (CD31 for tumor vasculature, Ki67 for tumor cell proliferation).
Evaluation of tumor response to tivozanib was performed essentially as follows. Subcutaneously transplanted tumors were established by injecting physically disrupted tumor cells (mixed with Matrigel) into 7 week-old female NCr nude mice. When the tumors reached approximately 200-400 mm^3, 30 tumor-bearing mice were randomized into three groups. Group 1 received vehicle. Group 2 received tivozanib at 5 mg/kg daily by oral gavage. Group 3 received tivozanib at 20 mg/kg daily by oral gavage. Tumors were measured twice per week by a caliper, and tumor volume was calculated. At the end of the treatment, tumors were collected for histopathological analysis and IHC analysis.
Based on tumor growth inhibition and typical histopathological and IHC (CD31) characteristics for angiogenesis inhibition, responders and non-responders were identified. […]

For experiment [2], the target named is VEGF receptor 3 (Homo sapiens, UniProt P35916). The conditions noted are these: Nakamura et al., 2006; cited from earlier work.
Sequence of VEGF receptor 3 (P35916 25-1363): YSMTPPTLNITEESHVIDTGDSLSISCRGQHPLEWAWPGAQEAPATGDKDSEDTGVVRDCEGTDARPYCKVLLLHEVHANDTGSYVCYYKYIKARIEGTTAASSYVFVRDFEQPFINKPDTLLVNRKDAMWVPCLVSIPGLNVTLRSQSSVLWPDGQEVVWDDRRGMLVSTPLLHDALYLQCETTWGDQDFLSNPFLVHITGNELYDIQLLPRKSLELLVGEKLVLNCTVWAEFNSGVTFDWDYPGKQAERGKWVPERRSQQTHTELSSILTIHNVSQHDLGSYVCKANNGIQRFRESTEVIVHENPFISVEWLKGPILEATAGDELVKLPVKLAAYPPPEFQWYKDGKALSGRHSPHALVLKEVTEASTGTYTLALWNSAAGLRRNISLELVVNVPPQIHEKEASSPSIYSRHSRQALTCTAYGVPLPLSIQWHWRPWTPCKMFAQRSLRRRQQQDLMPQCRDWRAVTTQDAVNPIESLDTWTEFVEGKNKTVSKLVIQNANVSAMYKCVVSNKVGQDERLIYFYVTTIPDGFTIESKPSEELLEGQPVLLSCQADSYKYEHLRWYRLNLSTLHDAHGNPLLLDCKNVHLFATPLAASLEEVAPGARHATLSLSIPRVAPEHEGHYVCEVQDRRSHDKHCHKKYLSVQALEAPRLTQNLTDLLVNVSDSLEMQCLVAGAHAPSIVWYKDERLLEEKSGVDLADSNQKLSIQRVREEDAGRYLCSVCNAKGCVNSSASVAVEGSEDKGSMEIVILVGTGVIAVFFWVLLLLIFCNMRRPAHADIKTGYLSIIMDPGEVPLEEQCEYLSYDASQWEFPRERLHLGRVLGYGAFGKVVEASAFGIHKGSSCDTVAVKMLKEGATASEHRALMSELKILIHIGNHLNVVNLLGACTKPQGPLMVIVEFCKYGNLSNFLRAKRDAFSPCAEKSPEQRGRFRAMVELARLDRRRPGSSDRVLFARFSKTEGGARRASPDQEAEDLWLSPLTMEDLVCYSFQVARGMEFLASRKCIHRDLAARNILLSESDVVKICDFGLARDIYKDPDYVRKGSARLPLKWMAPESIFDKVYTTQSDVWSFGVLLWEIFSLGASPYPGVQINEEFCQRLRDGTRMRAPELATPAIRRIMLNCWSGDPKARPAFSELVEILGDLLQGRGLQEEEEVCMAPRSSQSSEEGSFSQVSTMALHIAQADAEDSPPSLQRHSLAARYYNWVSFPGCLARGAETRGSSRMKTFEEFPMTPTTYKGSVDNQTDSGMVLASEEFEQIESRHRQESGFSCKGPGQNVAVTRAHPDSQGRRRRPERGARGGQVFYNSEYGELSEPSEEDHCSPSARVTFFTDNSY
Experiment [3] has as its system preclinical models. To be noted: Nakamura et al., 2006; cited from earlier work.
The conditions of experiment [4]: 272-patient Phase 2 clinical trial; Bhargava et al., 2009; cited from earlier work.

For `COc1cc2nccc(Oc3ccc(NC(=O)Nc4cc(C)on4)c(Cl)c3)c2cc1OC` [Tivozanib, N-{2-chloro-4-[(6,7-dimethoxy-4-quinolyl)oxy]-phenyl}-N′-(5-methyl-3-isoxazolyl)urea], the “variation in response among tumors” value in experiment [1] (5 or 20 mg/kg daily by oral gavage, tumor growth inhibition, histopathology, IHC (CD31)) is reported as “significant tumor-to-tumor variation in response”. Further, in experiment [1] (responder tumors, 5 mg/kg daily by oral gavage), the “tumor progression by caliper measurement” value was “no tumor progression”. Besides, the “tumor killing (by histology)” value in experiment [1] (responder tumors, 5 mg/kg daily by oral gavage, except the peripheries) was “close to complete tumor killing”. Further, the inhibitory activity entry in experiment [2] was “picomolar”. Further, the antitumor activity result in experiment [3] is reported as “exhibits antitumor activity”. Also, the interim results in experiment [4] is given as “positive interim results”.
